Measurements taken from article PMC12696090, “Enzyme engineering of cytochrome P450 RosC provides mechanistic insights into factors controlling iterative oxidation” (Applied Microbiology and Biotechnology, 2025).

Key:
[1] = target: T1, RosC lacking the N-terminal 21 residues (Micromonospora rosaria, UniProt I7HHD0); test: X-ray crystal structure; assay type: binding; details: 2.3 Å; active site, C-20 oriented toward heme iron
T1 construct: N-terminal 21 residues deleted, His-tag cut with thrombin, expressed in E. coli BL21(DE3); crystallization construct

NHis-RosC [2] = target: T2, NHis-RosC (Micromonospora rosaria, UniProt I7HHD0); test: spectral substrate-binding assay (difference spectra); details: 50 mM Tris-HCl pH 7.5, 20% glycerol, room temperature, 1 μM enzyme; Type II spectral change
T2 construct: full-length, N-terminal His-tag kept (pET28b), expressed in E. coli BL21(DE3)

NHis-RosC [3] = target: T3, NHis-RosC (Micromonospora rosaria, UniProt I7HHD0, P107S/L176Q); test: as above; details: 50 mM Tris-HCl pH 7.5, 20% glycerol, room temperature, 1 μM enzyme; Type II spectral change
T3 construct: full-length, N-terminal His-tag kept (pET28b), expressed in E. coli BL21(DE3)

Kd (NHis-RosC [2]) [nM]	Kd (NHis-RosC [3]) [nM]	SMILES	X-ray crystal structure [1]
–	–	CC[C@H]1OC(=O)C[C@@H](O)[C@H](C)[C@@H](O[C@@H]2O[C@H](C)C[C@H](N(C)C)[C@H]2O)[C@@H](CCO)C[C@@H](C)C(=O)/C=C/[C@]2(C)O[C@H]2[C@@H]1C [RS-A]	crystal structures of the RosC in complex with RS-A and RS
1400 ± 300	1000 ± 200	CC[C@H]1C[C@@H](C)C(=O)/C=C/[C@]2(C)O[C@H]2[C@H](C)[C@@H](CC)OC(=O)C[C@@H](O)[C@H](C)[C@H]1O[C@@H]1O[C@H](C)C[C@H](N(C)C)[C@H]1O [RS-B]	The crystal structure of RosC bound to RS-B
–	–	CC[C@H]1OC(=O)C[C@@H](O)[C@H](C)[C@@H](O[C@@H]2O[C@H](C)C[C@H](N(C)C)[C@H]2O)[C@@H](CC=O)C[C@@H](C)C(=O)/C=C/[C@]2(C)O[C@H]2[C@@H]1C [RS]	crystal structures of the RosC in complex with RS-A and RS
